Test results taken from patent publication US6268478A, “Intracellular vitamin D binding protein” (Cedars-Sinai Medical Center, priority 1997, dated 2001).

Molecular target: IDBP (Saguinus oedipus, UniProt Q9N1U2)
Assay: Competitive displacement of [3H]25-OHD3 from IDBP in unfractionated 100,000×g supernatant extracts of B95-8 cells (competitive protein binding assay, dextran-coated charcoal)
Design: post-nuclear 100,000xg supernatant of B95-8 marmoset lymphoblasts and partly purified column fractions; species or system Callithrix jacchus (common marmoset)
Settings: for RBI (Relative Binding Index): relative ability of maximally effective concentration to displace [3H]25-OHD3, 25-OHD3 assigned 100, unfractionated 100,000×g supernatant of B95-8 cells; for competition of non-vitamin D steroids and bioactive lipids with 25-OHD3 for binding: crude post-nuclear / 100,000×g supernatant extracts of B95-8 cells; for binding / displacement of [3H]25-OHD3 by vitamin D2 metabolites and synthetic analogues (FIG. 2B): unfractionated B95-8 extracts, 4 nM [3H]25-OHD3; for ability to competitively displace [3H]25-OHD3 binding (FIG. 1A): 100 nM competitor, 2 nM [3H]25-OHD3
From the text: Culture and Extraction of B95-8 Cells. The B-lymphoblastoid cell line B95-8 was obtained from the American Type Culture Collection (ATCC, Manassas, Va.). This cell line was established by EBV transformation of blood leukocytes from the vitamin D-resistant new world primate, Callithrix jacchus (common marmoset). The cell line was maintained in RPMI-1640 medium (Irvine Scientific, Irvine, Calif.) routinely supplemented with 10% fetal calf serum (FCS; Gemini BioProducts, Calabasas, Calif.), 100 units/ml penicillin, 100 μg/ml streptomycin, 2 mM L-glutamine (both from Gibco-BRL, Grand Island, N.Y.) in an atmosphere of 95% air-5% CO2.
Confluent cultures were harvested by agitation to dislodge clumps of lymphoblasts that were weakly adherent to the plastic flask. Harvested cells were pelleted and washed twice in ice cold phosphate-buffered saline (PBS; 20 mM Na2 HPO4 and 150 mM NaCl, pH 7.2). The pelleted cells were then resuspended in ETD buffer (1 mM EDTA, 10 mM Tris-HCl, 5 mM dithiothreitol, pH 7.4) containing 1 mM phenylmethylsulfonylflouride and homogenized by Polytron on ice in five 15-second bursts. Nuclei with associated nuclear steroid receptor proteins, were pelleted at 4,000×g for 30 minutes at 4° C. The post-nuclear supernatant of this spin was then subjected to high-speed centrifugation at 100,000×g for 1 hour at 4° C. The resulting "100,000×g supernatant" was either aliquoted and stored at […] for further study, used in competitive ligand binding analyses, or subjected to further purification as described below in Example II.
Ligand Binding Analyses. The ability of the unfractionated 100,000×g supernatant extracts of B95-8 cells and individual column […] of increasing concentrations of radioinert compounds (see Table I) was performed by competitive protein binding assay as previously described in Gacad et al. Bone Min. Res. 8:27-35 (1993).
[…] […] […] […] The binding assay conditions were the same as those stated above except that specific binding was determined in ETD-0.3 M Na2 HPO4 buffer (pH 6.8).

IDBP, sequence (Q9N1U2 whole entry): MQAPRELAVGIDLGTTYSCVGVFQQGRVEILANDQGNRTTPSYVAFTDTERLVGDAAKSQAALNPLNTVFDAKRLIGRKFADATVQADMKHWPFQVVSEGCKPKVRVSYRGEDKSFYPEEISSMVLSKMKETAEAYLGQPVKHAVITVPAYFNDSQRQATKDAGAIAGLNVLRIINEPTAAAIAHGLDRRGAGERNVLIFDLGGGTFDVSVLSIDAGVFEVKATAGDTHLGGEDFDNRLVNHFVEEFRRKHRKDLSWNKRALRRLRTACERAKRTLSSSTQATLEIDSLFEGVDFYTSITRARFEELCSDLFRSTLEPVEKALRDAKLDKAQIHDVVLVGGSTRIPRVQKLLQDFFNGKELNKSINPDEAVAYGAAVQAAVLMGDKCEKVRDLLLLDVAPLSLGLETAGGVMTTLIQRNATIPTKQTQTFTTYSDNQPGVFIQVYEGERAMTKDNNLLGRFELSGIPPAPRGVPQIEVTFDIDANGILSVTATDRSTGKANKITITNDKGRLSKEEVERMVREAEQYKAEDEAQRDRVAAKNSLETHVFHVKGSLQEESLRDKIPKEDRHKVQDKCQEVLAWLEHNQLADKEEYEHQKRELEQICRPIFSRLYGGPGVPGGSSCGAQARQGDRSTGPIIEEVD

Row | Compound | RBI (Relative Binding Index) | other results
1 | CC/C(=C(\c1ccccc1)c1ccc(OCCN(C)C)cc1)c1ccccc1 [Tamoxifen] | 0 | –
2 | CC(=O)[C@H]1CC[C@H]2[C@@H]3CCC4=CC(=O)CC[C@]4(C)[C@H]3CC[C@]12C [Progesterone] | 19 | competition of non-vitamin D steroids and bioactive lipids with 25-OHD3 for binding: competitively displaces [^3 H]25-OHD3
3 | C[C@]12CCC(=O)C=C1CC[C@@H]1[C@@H]2[C@@H](O)C[C@@]2(C)[C@H]1CC[C@]2(O)C(=O)CO [Hydrocortisone] | 0 | –
4 | C=C1/C(=C\C=C2/CCC[C@]3(C)[C@@H]([C@H](C)/C=C/[C@H](C)C(C)(C)O)CC[C@@H]23)C[C@@H](O)C[C@@H]1O [1,25-(OH)2D2, 1,25-dihydroxyvitamin D2] | 35 | binding / displacement of [3H]25-OHD3 by vitamin D2 metabolites and synthetic analogues (FIG. 2B): bound in unfractionated extracts equivalently to 25-OHD3 and 1,25-(OH)^2 D3
5 | C=C1CC[C@H](O)C/C1=C/C=C1\CCC[C@]2(C)[C@@H]([C@H](C)CCCC(C)(O)CO)CC[C@@H]12 (stereo partly drawn) [25,26-(OH)2D3] | 70 | ability to competitively displace [3H]25-OHD3 binding (FIG. 1A): roughly equivalent in their ability to competitively inhibit
6 | C[C@]12CC[C@@H]3c4ccc(O)cc4CC[C@H]3[C@@H]1CC[C@@H]2O [17β-Estradiol] | 33 | competition of non-vitamin D steroids and bioactive lipids with 25-OHD3 for binding: competitively displaces [^3 H]25-OHD3
7 | C[C@]12CC[C@H](OS(=O)(=O)O)CC1=CC[C@@H]1[C@@H]2CC[C@]2(C)C(=O)CC[C@@H]12 [DHEAS] | 0 | –
8 | CCCCC/C=C\C/C=C\C/C=C\C/C=C\CCCC(=O)O [Arachidonic acid] | 0 | –
9 | C[C@H](CCCC(C)(C)O)[C@H]1CC[C@H]2[C@@H]3CC=C4C[C@@H](O)CC[C@]4(C)[C@H]3CC[C@]12C [25-Hydroxycholesterol] | 0 | competition of non-vitamin D steroids and bioactive lipids with 25-OHD3 for binding: none of these evaluated compounds were able to compete with 25-OHD3 for binding
10 | C=C1/C(=C\C=C2/CCC[C@]3(C)[C@@H]([C@H](C)/C=C/C=C/C(O)(CC)CC)CC[C@@H]23)C[C@@H](O)C[C@@H]1O [EB1089] | 0 | binding / displacement of [3H]25-OHD3 by vitamin D2 metabolites and synthetic analogues (FIG. 2B): none of the C-1-hydroxylated nonhypercalcemic analogues MC903, EB1089 and KH1060 (FIG. 2A) were able to displace [^3 H]25-OHD3 binding
11 | C=C1/C(=C\C=C2/CCC[C@]3(C)[C@@H]([C@H](C)CCC(O)C(C)(C)O)CC[C@@H]23)C[C@@H](O)CC1O (stereo partly drawn) [1,24,25-(OH)3D3] | 36 | ability to competitively displace [3H]25-OHD3 binding (FIG. 1A): significantly decreased effective competitive binding; displacement of 25-OHD3 (competitor at 10^-7 M, 0.1 µM): 20%; displacement of 25-OHD3 at lower concentrations (competitor concentrations below 10^-7 M): no apparent displacement at lower concentrations
12 | CC1=C(/C=C/C(C)=C/C=C/C(C)=C/C(=O)O)C(C)(C)CCC1 [All-trans Retinoic acid] | 0 | –
13 | C[C@]12CC[C@H]3[C@@H](CCC4=CC(=O)CC[C@@]43C)[C@@H]1CC[C@@H]2O [Testosterone] | 30 | competition of non-vitamin D steroids and bioactive lipids with 25-OHD3 for binding: competitively displaces [^3 H]25-OHD3
14 | C[C@@H]1C[C@H]2[C@@H]3CCC4=CC(=O)C=C[C@]4(C)[C@@]3(F)[C@@H](O)C[C@]2(C)[C@@]1(O)C(=O)CO [Dexamethasone] | 0 | –
15 | C=C1CC[C@H](O)C/C1=C/C=C1\CCC[C@]2(C)[C@@H]([C@H](C)/C=C/[C@H](C)C(C)C)CC[C@@H]12 [Vitamin D2, ergocalciferol] | 0 | –
16 | Androstendiol | 0 | –
17 | CCCCC[C@H](O)/C=C/[C@H]1[C@H](O)CC(=O)[C@@H]1C/C=C\CCCC(=O)O [PGE2] | 0 | –
